# Assay results published in patent US11261186B2, “Biaryl derivative as GPR120 agonist” (LG CHEM, LTD., priority 2014, dated 2022).
# Target: T1, hGPR120 (Homo sapiens, UniProt Q5NUL3)
# T1 construct: expressed in transfected cells; host or cells: CHO-K1
# T1 sequence (Q5NUL3 1-361): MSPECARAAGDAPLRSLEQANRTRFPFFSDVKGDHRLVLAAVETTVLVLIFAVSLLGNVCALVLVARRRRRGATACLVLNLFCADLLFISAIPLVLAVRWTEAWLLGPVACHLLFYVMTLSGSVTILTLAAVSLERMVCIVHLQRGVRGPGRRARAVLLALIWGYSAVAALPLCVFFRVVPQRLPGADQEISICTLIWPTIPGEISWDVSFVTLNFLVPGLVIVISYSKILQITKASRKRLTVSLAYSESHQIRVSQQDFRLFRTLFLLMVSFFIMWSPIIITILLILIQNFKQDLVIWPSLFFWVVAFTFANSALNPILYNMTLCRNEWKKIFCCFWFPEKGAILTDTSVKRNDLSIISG
# Experiment: Measurement of Activity of GPR120 Agonist (Cell-Based Assay), Calcium 5 dye fluorescence
# Conditions: CHO-K1 cells expressing Ga16 and hGPR120
# Experimental: CHO-K1 cells expressing Ga16 and hGPR120 were dispensed into each well of a 96-well plate (3×10^4 cells/100 μl/well) and then incubated in 5% CO2, 37° C. incubator for 18 hours. Each well was treated with 100 μl of Calcium 5 dye (Molecular Devices) solution including 2% DMSO and then incubated in 5% CO2, 37° C. incubator for 1 hour. Serially diluted GPR120 agonists were prepared to a final concentration of 0.5% DMSO in a 96-well plate. Each well was treated with 50 μl of the agonist compounds using Plexstation II, and then fluorescence was measured at Ex 485 nm and Em 525 nm.
# Fluorescence increased by the serially diluted GPR120 agonists is calculated as a relative percent (%) value based on the fluorescence represented by the treatment of 1% DMSO only. […] The calculation of measurement was carried out by using statistical software (Prizm).
# Activity is denoted based on the following criteria: […]
row,EC50,SMILES
1,< 200 nM,"CC(CCCC(=O)O)c1c(F)cc(-c2cccc(NC3CCCC3)c2)cc1F (stereo not drawn) [Example 52, 5-(3′-cyclopentylamino-3,5-difluoro-biphenyl-4-yl)-hexanoic acid]"
2,< 200 nM,"CC(C)Sc1cccc(-c2cc(F)c(C(C)CCCC(=O)O)c(F)c2)n1 (stereo not drawn) [Example 53, 5-[2,6-difluoro-4-(6-isopropylsulfanyl-2-pyridyl)-phenyl]hexanoic acid]"
3,< 200 nM,"CC(CCCC(=O)O)c1c(F)cc(-c2cccc(SC3CCCC3)n2)cc1F (stereo not drawn) [Example 54, 5-[4-(6-cyclopentylsulfanyl-2-pyridyl)-2,6-difluoro-phenyl]hexanoic acid]"
4,< 200 nM,"CCCSc1cccc(-c2cc(F)c(C(C)CCCC(=O)O)c(F)c2)n1 (stereo not drawn) [Example 55, 5-[2,6-difluoro-4-(6-propylsulfanyl-2-pyridyl)phenyl]hexanoic acid]"
5,< 200 nM,"CC(CCCC(=O)O)c1c(F)cc(-c2cccnc2OCC2CC2)cc1F (stereo not drawn) [Example 60, 5-[4-(2-cyclopropylmethoxy-3-pyridyl)-2,6-difluoro-phenyl]hexanoic acid]"
6,< 200 nM,"Oc1cc(COc2c(F)cc(-c3cccnc3SC3CCC3)cc2F)on1 [Example 61, 5-[[4-(2-cyclobutylsulfanyl-3-pyridyl)-2,6-difluoro-phenoxy]methyl]isoxazol-3-ol]"
7,2000 to 20000 nM,"CCCSc1ncccc1-c1ccc(CCCc2noc(=O)[nH]2)cc1 [Example 63, 3-[3-[4-(2-propylsulfanyl-3-pyridyl)phenyl]propyl]-4H-1,2,4-oxadiazol-5-one]"
8,2000 to 20000 nM,"CCCSc1ncccc1-c1ccc(CCCc2noc(=S)[nH]2)cc1 [Example 64, 3-[3-[4-(2-propylsulfanyl-3-pyridyl)phenyl]propyl]-4H-1,2,4-oxadiazol-5-thione]"
9,< 200 nM,"Oc1cc(COc2c(F)cc(-c3cccnc3SC3CCCC3)cc2F)on1 [Example 65, 5-[[4-(2-cyclopentylsulfanyl-3-pyridyl)-2,6-difluoro-phenoxy]methyl]isoxazol-3-ol]"
10,< 200 nM,"CCCSc1ncccc1-c1cc(F)c(OCc2cc(O)no2)c(F)c1 [Example 66, 5-[[2,6-difluoro-4-(2-propylsulfanyl-3-pyridyl)phenoxy]methyl]isoxazol-3-ol]"
11,< 200 nM,"CC(C)Sc1ncccc1-c1cc(F)c(OCc2cc(O)no2)c(F)c1 [Example 68, 5-[[2,6-difluoro-4-(2-isopropylsulfanyl-3-pyridyl)phenoxy]methyl]isoxazol-3-ol]"
12,< 200 nM,"CC(C)Oc1ncccc1-c1cc(F)c(OCc2cc(O)no2)c(F)c1 [Example 69, 5-[[2,6-difluoro-4-(2-isopropoxy-3-pyridyl)phenoxy]methyl]isoxazol-3-ol]"
13,< 200 nM,"CC(C)Sc1cccc(-c2cc(F)c(OCc3cc(O)no3)c(F)c2)n1 [Example 70, 5-[[2,6-difluoro-4-(6-isopropylsulfanyl-2-pyridyl)phenoxy]methyl]isoxazol-3-ol]"
14,< 200 nM,"CC(C)Oc1cccc(-c2cc(F)c(OCc3cc(O)no3)c(F)c2)n1 [Example 71, 5-[[2,6-difluoro-4-(6-isopropoxy-2-pyridyl)phenoxy]methyl]isoxazol-3-ol]"
15,< 200 nM,"Oc1cc(COc2c(F)cc(-c3cccc(OCC4CC4)n3)cc2F)on1 [Example 72, 5-[[4-[6-(cyclopropylmethoxy)-2-pyridyl]-2,6-difluoro-phenoxy]methyl]isoxazol-3-ol]"
16,< 200 nM,"CCCOc1cccc(-c2cc(F)c(OCc3cc(O)no3)c(F)c2)n1 [Example 73, 5-[[2,6-difluoro-4-(6-propoxy-2-pyridyl)phenoxy]methyl]isoxazol-3-ol]"
17,< 200 nM,"CCCOc1ncccc1-c1cc(F)c(OCc2cc(O)no2)c(F)c1 [Example 74, 5-[[2,6-difluoro-4-(2-propoxy-3-pyridyl)phenoxy]methyl]isoxazol-3-ol]"
18,< 200 nM,"Oc1cc(COc2c(F)cc(-c3cccnc3OCC3CCC3)cc2F)on1 [Example 77, 5-[[4-[2-(cyclobutylmethoxy)-3-pyridyl]-2,6-difluoro-phenoxy]methyl]isoxazol-3-ol]"
19,2000 to 20000 nM,"O=C(O)Cc1cnn(-c2ccc(-c3cccnc3SC3CCC3)cc2)c1 [Example 93, 2-[1-[4-(2-cyclobutylsulfanyl-3-pyridyl)phenyl]pyrazol-4-yl]acetic acid]"

row,SMILES,EC50
1,"CC(CCCC(=O)O)c1c(F)cc(-c2cccc(OC3CCCC3)n2)cc1F (stereo not drawn) [Example 56, 5-[4-(6-cyclopentoxy-2-pyridyl)-2,6-difluoro-phenyl]hexanoic acid]",< 200 nM
2,"CC(CCCC(=O)O)c1c(F)cc(-c2cccnc2OC2CCC2)cc1F (stereo not drawn) [Example 59, 5-[4-(2-cyclobutoxy-3-pyridyl)-2,6-difluoro-phenyl]hexanoic acid]",< 200 nM
3,"Oc1cc(COc2c(F)cc(-c3cccnc3OC3CCCC3)cc2F)on1 [Example 67, 5-[[4-[2-(cyclopentoxy)-3-pyridyl]-2,6-difluoro-phenoxy]methyl]isoxazol-3-ol]",< 200 nM
4,"Oc1cc(COc2c(F)cc(-c3cccnc3OC3CCC3)cc2F)on1 [Example 76, 5-[[4-[2-(cyclobutoxy)-3-pyridyl]-2,6-difluoro-phenoxy]methyl]isoxazol-3-ol]",< 200 nM
5,"Oc1ccc(COc2c(F)cc(-c3cccnc3OC3CCCC3)cc2F)cn1 [Example 79, 5-[[4-[2-(cyclopentoxy)-3-pyridyl]-2,6-difluoro-phenoxy]methyl]pyridin-2-ol]",2000 to 20000 nM
6,"Oc1cc(CSc2ccc(-c3cccnc3OC3CCCC3)cc2)on1 [Example 81, 5-[[4-[2-(cyclopentoxy)-3-pyridyl]phenyl]sulfanylmethyl]isoxazol-3-ol]",< 200 nM
7,"Oc1cc(CSc2c(F)cc(-c3cccnc3OC3CCCC3)cc2F)on1 [Example 83, 5-[[4-[2-(cyclopentoxy)-3-pyridyl]-2,6-difluoro-phenyl]sulfanylmethyl]isoxazol-3-ol]",< 200 nM
8,"Oc1cc(CNc2c(F)cc(-c3cccnc3OC3CCCC3)cc2F)on1 [Example 84, 5-[[4-[2-(cyclopentoxy)-3-pyridyl]-2,6-difluoro-anilino]methyl]isoxazol-3-ol]",< 200 nM
9,"CN(Cc1cc(O)no1)c1ccc(-c2cccnc2OC2CCCC2)cc1 [Example 86, 5-[[4-[2-(cyclopentoxy)-3-pyridyl]-N-methyl-anilino]methyl]isoxazol-3-ol]",< 200 nM
10,"Oc1cc(CCc2c(F)cc(-c3cccnc3OC3CCCC3)cc2F)on1 [Example 87, 5-[2-[4-[2-(cyclopentoxy)-3-pyridyl]-2,6-difluoro-phenyl]ethyl]isoxazol-3-ol]",< 200 nM
11,"CC(Cc1cc(O)no1)c1c(F)cc(-c2cccnc2OC2CCCC2)cc1F (stereo not drawn) [Example 88, 5-[2-[4-[2-(cyclopentoxy)-3-pyridyl]-2,6-difluoro-phenyl]propyl]isoxazol-3-ol]",< 200 nM
12,"Oc1cc(CCOc2c(F)cc(-c3cccnc3OC3CCCC3)cc2F)on1 [Example 89, 5-[2-[4-[2-(cyclopentoxy)-3-pyridyl]-2,6-difluoro-phenoxy]ethyl]isoxazol-3-ol]",< 200 nM
13,"Oc1cc(CCNc2c(F)cc(-c3cccnc3OC3CCCC3)cc2F)on1 [Example 90, 5-[2-[4-[2-(cyclopentoxy)-3-pyridyl]-2,6-difluoro-anilino]ethyl]isoxazol-3-ol]",200 to 2000 nM
14,"O=C(O)CCCCNc1c(F)cc(-c2cccnc2OC2CCCC2)cc1F [Example 94, 5-[4-[2-(cyclopentoxy)-3-pyridyl]-2,6-difluoro-anilino]pentanoic acid]",< 200 nM
